Tests used:
[1] = test system: three dimensional human skin model MEL-300 (normal human skin keratinocytes containing normal human epidermal melanocytes); test: Melanin synthesis inhibitory test (three dimensional human skin model); type: cell-based; settings: 0.1 ml of a 30 mmol/l solution, MEL-300 cups, 14 days of incubation, vs 0.2% ethanol control, Scheffe, significance level 1%, n=3 (FIG. 2)
Description: (§1) Melanin formation inhibitory effects of the compounds 4 or 5 shown in Table 1 were evaluated using three dimensional human skin model MEL-300 (normal human skin keratinocytes containing normal human epidermal melanocytes). The MEL-300 skin model cups were transferred to a 6-well plate, each well containing 0.9 ml of EPI-100-LLMM maintenance medium, and were pre-incubated at 37° C. and 5% CO2 for 1 hour.
The maintenance medium was suction removed, and 5 ml of the maintenance medium was newly added. Thereafter, 0.1 ml of a 30 mmol/l solution of the compound 4 or 5 was added to the MEL-300 skin model cups, and the resultant were incubated. The controls were given 0.1 ml of a 0.2% ethanol solution. The positive controls were given 0.1 ml of a 30 mmol/l kojic acid solution.
The maintenance medium and the test substance were replaced every two days, and the incubation was performed for 14 days. […]
After the reaction, the reaction liquid was sufficiently stirred and the incubated skin piece was completely crushed. […] The supernatant was analyzed to determine the absorbance at 405 nm. A linear calibration curve was prepared based on the absorbances of melanin solutions of known concentrations that had been treated similarly. The melanin contents in the incubated skin pieces were thus determined. […]

[2] = test system: C3H mice; test: Accelerating effects for mouse body hair growth; type: in vivo; settings: male C3H/HeN mice, shaved dorsal region, 0.1 ml of a 50 μmol/g ointment once a day, Day 18, vs coating stimulation only, Scheffe, significance level 5%, n=6 (FIG. 3)
Description: Male C3H/HeN that were seven weeks old in a telogen hair cycle were used.
The dorsal region of the mice was shaved with an electrical hair clipper (0.05 mm blades) and an electrical shaver. From the next day, 0.1 ml of a 50 μmol/g ointment of the compound 4 or 5 was coated on the shaved regions once a day using a bacteria spreader. The controls were given only coating stimulation with a bacteria spreader.
The dorsal region of the mice on Day 18 after the initiation of coating was photographed. The proportion of the area of the region where hair had regrown relative to the total area of the shaved region was calculated by image analysis. The value obtained thereby indicated the hair regrowth rate (%). Significant difference was tested by a post-hoc test (Scheffe method). The significance level was 5%.
In this experiment, n=6 for the test substances and n=7 for the controls.

[3] = test system: three dimensional human skin model MEL-300 (normal human skin keratinocytes containing normal human epidermal melanocytes); test: Inhibitory effects for melanocyte dendrite formation (three dimensional human skin model); type: cell-based; settings: 0.1 ml of a 30 mmol/l solution, MEL-300 cups, 7 days of incubation, vs 0.2% ethanol control, Scheffe, significance level 5%, n=3 (FIG. 1)
Description: as §1, with “4 and” for “4 or”
The maintenance medium was suction removed, and 5 ml of the maintenance medium was newly added. Thereafter, 0.1 ml of a 30 mmol/l solution of the compound 4 or 5 was added to the MEL-300 skin model cups, and the resultant were incubated. The controls were given 0.1 ml of a 0.2% ethanol solution.
The maintenance medium and the test substance were replaced every two days, and the incubation was performed for 7 days. After the 7 days of incubation, the cells inside the three dimensional human skin model cup were photographed, and the proportion (%) of the area of melanocytes was calculated by image analysis. Significant difference was tested by a post-hoc test (Scheffe method). The significance level was 5%. […] In this experiment, n=3.

[4] = background art statement; cited from earlier work

| SMILES | melanin production (melanin contents in the incubated skin pieces, absorbance at 405 nm) [1] | hair regrowth rate (%) [2] | formation of melanocyte dendrites (proportion (%) of the area of melanocytes by image analysis) [3] | solubility in water [4] |
| --- | --- | --- | --- | --- |
| COc1c(OC(=O)CN(C)C)c(C)c(CC=C(C)CCC=C(C)CCC=C(C)CCC=C(C)CCC=C(C)CCC=C(C)CCC=C(C)CCC=C(C)CCC=C(C)CCC=C(C)C)c(OC(=O)CN(C)C)c1OC.Cl [Compound 4, 2,3-dimethoxy-5-methyl-6-decaisoprenylbenzene 1,4-bis-N,N-dimethyl glycinate hydrochloride] | significantly decreased | significantly increased | significantly inhibited | – |
| COC1=C(OC)C(=O)C(CC=C(C)CCC=C(C)CCC=C(C)CCC=C(C)CCC=C(C)CCC=C(C)CCC=C(C)CCC=C(C)CCC=C(C)CCC=C(C)C)=C(C)C1=O [ubiquinone-10, 2,3-dimethoxy-5-methyl-6-decaisoprenyl-1,4-benzoquinone] | – | – | – | completely insoluble in water |
| COc1c(O)c(CC=C(C)CCC=C(C)CCC=C(C)CCC=C(C)CCC=C(C)CCC=C(C)CCC=C(C)CCC=C(C)CCC=C(C)CCC=C(C)C)c(C)c(OC(=O)CN(C)C)c1OC.Cl [Compound 5, 2,3-dimethoxy-5-methyl-6-decaisoprenyl-1-hydroxybenzene 4-N,N-dimethyl glycinate hydrochloride] | significantly decreased | significantly increased | significantly inhibited | – |

Reference: patent US20110144376A1, “DERMATOLOGICAL AGENT” (SHOWA DENKO K.K., priority 2008, published 2011)
